From patent US9556165B2 (priority 2012, dated 2017)
Values after ≈ are worked out from the molar mass of the structure shown. Read-outs that look alike come from different tables or passages of the source.

Experiments:
Type in all cases: cell-based
A. baumannii ATCC15308 = assay: MIC determination, broth microdilution (CLSI); settings: for MIC: Acinetobacter baumannii, ATCC15308, strain 9
Bacteria = assay: MIC determination in combination with β-lactamase inhibitors (constant 4 μg/mL)
E. coli J62-TEM-3 = assay: MIC determination, broth microdilution (CLSI); settings: broth microdilution; for MIC: Escherichia coli, J62TEM3, read-out: MIC strain 18 (E. coli J62-TEM-3), strain 18
H. influenzae ATCC 49247 = assay: MIC determination, broth microdilution (CLSI); settings: Haemophilus influenzae, ATCC49247, strain 12; broth microdilution; read-out: MIC strain 12 (H. influenzae ATCC 49247)
S. aureus 133 = assay: MIC determination, broth microdilution (CLSI)
S. maltophilia ICB7569 = assay: MIC determination, broth microdilution (CLSI); settings: for MIC: Stenotrophomonas maltophilia, ICB7569, strain 10
M. morganii 126/3048 = assay: MIC determination, broth microdilution (CLSI); settings: for MIC: Morganella morganii, 126/3048, strain 5
C. perfringens DSM756 = assay: microbe, parasite or virus in culture; settings: Clostridium perfringens, DSM756, read-out: MIC strain 16 (C. perfringens DSM756), strain 16; broth microdilution
B. fragilis 6688 = assay: MIC determination, broth microdilution (CLSI); settings: Bacteroides fragilis, 6688, strain 15; broth microdilution; read-out: MIC strain 15 (B. fragilis 6688)
E. coli ATCC25922 = assay: MIC determination, broth microdilution (CLSI); settings: for MIC: Escherichia coli, ATCC25922, strain 1
C. freundii K21/3034 = assay: MIC determination, broth microdilution (CLSI); settings: for MIC: Citrobacter freundii, K21/3034, strain 4
P. aeruginosa PAO1 = assay: MIC determination, broth microdilution (CLSI); settings: for MIC: Pseudomonas aeruginosa, PAO1, strain 6
E. coli J62 = assay: MIC determination, broth microdilution (CLSI); settings: broth microdilution; for MIC: Escherichia coli, J62, strain 17, read-out: MIC strain 17 (E. coli J62)
[1] = tested on: P. aeruginosa 2297-con (AmpC derepressed); assay: MIC determination, broth microdilution (CLSI); settings: for MIC: Pseudomonas aeruginosa, read-out: strain 8 MIC, strain 8
K. pneumoniae 60 = assay: MIC determination, broth microdilution (CLSI); settings: for MIC: Klebsiella pneumoniae, 60, strain 2
S. pneumoniae 113 = assay: MIC determination, broth microdilution (CLSI); settings: Streptococcus pneumoniae, 113, strain 13; broth microdilution; read-out: MIC strain 13 (S. pneumoniae 113)
[2] = tested on: P. aeruginosa 2297 (AmpC wt); assay: MIC determination, broth microdilution (CLSI); settings: for MIC: Pseudomonas aeruginosa, strain 7
E. cloacae 34654 = assay: MIC determination, broth microdilution (CLSI); settings: for MIC: Enterobacter cloacae, 34654, strain 3
[3] = Staphylococcus aureus, 133, strain 11, read-out: strain 11 MIC

Structure (SMILES) | MIC (A. baumannii ATCC15308) | MIC strain 19 (E. coli J62-TEM-3 + 4 μg/mL clavulanic acid) (Bacteria) | MIC strain 20 (E. coli J62-TEM-3 + 4 μg/mL sulbactam) (Bacteria) | MIC strain 21 (E. coli J62-TEM-3 + 4 μg/mL tazobactam) (Bacteria) | MIC (E. coli J62-TEM-3) | MIC (H. influenzae ATCC 49247) | MIC (S. maltophilia ICB7569) | MIC (M. morganii 126/3048) | MIC (C. perfringens DSM756) | MIC (B. fragilis 6688) | MIC (E. coli ATCC25922) | MIC (C. freundii K21/3034) | MIC (P. aeruginosa PAO1) | MIC (E. coli J62) | MIC [1] | MIC (K. pneumoniae 60) | MIC (S. pneumoniae 113) | MIC [2] | MIC (E. cloacae 34654) | MIC (S. aureus 133; [3]) | other results
CC(=N)N1CC[C@H](NC(=N)c2ccc(OCCO/N=C(\C(=O)N[C@@H]3C(=O)N(OS(=O)(=O)O)C3(C)C)c3csc(N)n3)cc2)C1 [Example 43, (2Z)-2-(2-Amino-1,3-thiazol-4-yl)-N-[(3S)-2,2-dimethyl-4-oxo-1-(sulfooxy)azetidin-3-yl]-2-{[2-(4-{N-[(3S)-1-ethanimidoylpyrrolidin-3-yl]carbamimidoyl}phenoxy)ethoxy]-imino}ethanamide] | 0.5 µg/mL (≈ 0.767 µM) | 0.25 µg/mL | 0.5 µg/mL | 0.5 µg/mL | 8 µg/mL (≈ 12.3 µM) | 0.125 µg/mL (≈ 0.192 µM) | 32 µg/mL (≈ 49.1 µM) | 1 µg/mL (≈ 1.53 µM) | 2 µg/mL (≈ 3.07 µM) | 8 µg/mL (≈ 12.3 µM) | 0.5 µg/mL (≈ 0.767 µM) | 0.25 µg/mL (≈ 0.384 µM) | 8 µg/mL (≈ 12.3 µM) | 0.5 µg/mL (≈ 0.767 µM) | 8 µg/mL (≈ 12.3 µM) | 0.5 µg/mL (≈ 0.767 µM) | ≤ 0.063 µg/mL | 8 µg/mL (≈ 12.3 µM) | 1 µg/mL (≈ 1.53 µM) | – | MIC (S. aureus 133; Staphylococcus aureus, 133, strain 14, broth microdilution, read-out: MIC strain 14 (S. aureus 133)): 4 µg/mL (≈ 6.14 µM)
CN1CC[C@H](NC(=N)c2ccc(OC[C@H](O/N=C(\C(=O)N[C@@H]3C(=O)N(OS(=O)(=O)O)C3(C)C)c3csc(N)n3)C(=O)O)cc2)C1 [Example 101] | 4 µg/mL (≈ 5.98 µM) | ≦0.063 mg/L | ≦0.063 mg/L | 0.125 µg/mL | 8 µg/mL (≈ 12 µM) | ≤ 0.063 µg/mL | 8 µg/mL (≈ 12 µM) | 0.125 µg/mL (≈ 0.187 µM) | 2 µg/mL (≈ 2.99 µM) | 8 µg/mL (≈ 12 µM) | 0.125 µg/mL (≈ 0.187 µM) | 0.125 µg/mL (≈ 0.187 µM) | 2 µg/mL (≈ 2.99 µM) | 0.125 µg/mL (≈ 0.187 µM) | 2 µg/mL (≈ 2.99 µM) | 0.125 µg/mL (≈ 0.187 µM) | 0.5 µg/mL (≈ 0.748 µM) | 4 µg/mL (≈ 5.98 µM) | 0.125 µg/mL (≈ 0.187 µM) | ≤ 0.063 µg/mL | –
CN1CC(NC(=N)c2ccc(OC[C@H](O/N=C(\C(=O)N[C@@H]3C(=O)N(OS(=O)(=O)O)C3(C)C)c3csc(N)n3)C(=O)O)cc2)C1 [Example 109] | 2 µg/mL (≈ 3.05 µM) | ≦0.063 mg/L | 0.25 µg/mL | 0.125 µg/mL | 2 µg/mL (≈ 3.05 µM) | ≤ 0.063 µg/mL | 8 µg/mL (≈ 12.2 µM) | 0.125 µg/mL (≈ 0.191 µM) | 4 µg/mL (≈ 6.11 µM) | 16 µg/mL (≈ 24.4 µM) | 0.125 µg/mL (≈ 0.191 µM) | 0.125 µg/mL (≈ 0.191 µM) | 2 µg/mL (≈ 3.05 µM) | 0.125 µg/mL (≈ 0.191 µM) | 2 µg/mL (≈ 3.05 µM) | 0.125 µg/mL (≈ 0.191 µM) | 0.5 µg/mL (≈ 0.764 µM) | 2 µg/mL (≈ 3.05 µM) | 0.125 µg/mL (≈ 0.191 µM) | ≤ 0.063 µg/mL | –
CC1(C)[C@H](NC(=O)/C(=N\OC(CO)COc2ccc(C(=N)N)cc2)c2csc(N)n2)C(=O)N1OS(=O)(=O)O (mixture of isomers) [Example 45B, (2Z)-2-(2-Amino-1,3-thiazol-4-yl)-2-({[(2R and 2S)-1-(4-carbamimidoylphenoxy)-3-hydroxypropan-2-yl]oxy}imino)-N-[(3S)-2,2-dimethyl-4-oxo-1-(sulfooxy)azetidin-3-yl]ethanamide] | – | 2 µg/mL | 4 µg/mL | 4 µg/mL | – | 0.5 µg/mL | – | – | 2 µg/mL | 4 µg/mL | – | – | – | – | – | – | 0.125 µg/mL | – | – | ≤ 0.063 µg/mL | strain 9 MIC (A. baumannii ATCC15308; strain 9): 4 µg/mL; MIC strain 18 (E. coli J62-TEM-3) (E. coli J62-TEM-3; strain 18): 16 µg/mL; MIC strain 14 (S. aureus 133) (S. aureus 133; strain 14, broth microdilution): 16 µg/mL; strain 10 MIC (S. maltophilia ICB7569; strain 10): 32 µg/mL; strain 5 MIC (M. morganii 126/3048; strain 5): 4 µg/mL; strain 1 MIC (E. coli ATCC25922; strain 1): 2 µg/mL; strain 4 MIC (C. freundii K21/3034; strain 4): 1 µg/mL; strain 6 MIC (P. aeruginosa PAO1; strain 6): 16 µg/mL; MIC strain 17 (E. coli J62) (E. coli J62; strain 17): 4 µg/mL; strain 8 MIC ([1]; strain 8): 32 µg/mL; strain 2 MIC (K. pneumoniae 60; strain 2): 2 µg/mL; strain 7 MIC [2]: 32 µg/mL; strain 3 MIC (E. cloacae 34654; strain 3): 4 µg/mL
